The series in a line: Solubility of etomidate. The settings on record: aqueous buffer. Format: physicochemical. From the text:
. […] . No. 4,289,783 to Mesens).
By “therapeutic agent/SAE-CD complex” is generally meant a clathrate or inclusion complex of a sulfoalkyl ether cyclodextrin derivative of the formula (1) and a therapeutic agent. By “complexed” is meant “being part of a clathrate or inclusion complex with”, i.e., a complexed therapeutic agent is part of a clathrate or inclusion complex with a sulfoalkyl ether cyclodextrin derivative. By “major portion” is meant at least about 50% by weight of the therapeutic compound. Thus, a formulation according to the present invention will contain a therapeutic agent of which more than about 50% by weight is complexed with an SAE-CD. In various embodiments, preferably greater than 60% by weight, more preferably greater than 75% by weight, even more preferably greater than 90% by weight, and most preferably greater than 95% by weight of the therapeutic agent will remain complexed with an SAE-CD while in the pharmaceutical formulation. The actual percent of drug that is complexed will vary according to the complexation equilibrium constant characterizing the complexation of a specific SAE- CD to a specific drug. […] . In this case the amount complexed is only 75%. Generally, the greater the percentage of drug that is complexed, the more effectively the SAE-CD will reduce pain on injection. […]

The text below walks through data of patent publication US20030055023A1, “Formulations containing etomidate and a sulfoalkyl ether cyclodextrin” (priority 2001, published 2003).

The structures appear in SMILES notation. In brackets after ≈: the same amount, converted by molar mass.

One may read the solubility as the dissolved amount per volume that the medium holds. Higher therefore signals much dissolved substance. Turning to `CCOC(=O)c1cncn1[C@H](C)c1ccccc1` [Etomidate, (R)-(+)ethyl 1-(1-phenylethyl)-1H-imidazole-5-carboxylate], the solubility (0.025 M phosphate buffer at pH 7.0) was roughly 450 µg/mL (≈ 1840 µM) and the solubility (25mM phosphate buffer, pH 7.4) was determined as 450 µg/mL (≈ 1840 µM).
